Test system: human colon carcinoma cell strain WiDr
Experiment: Microarray analysis (Human Genome U133 plus 2.0 array) of mRNA expression in WiDr cells treated with compound A
Format: cell-based
Details: 2.8 nM, 6 h, ratio to control
Protocol: Microarray analysis (Human Genome U133 plus 2.0 array: Affymetrix) was carried out using RNA purified from human colon carcinoma cell strain WiDr treated with 2.8 nM and 14 nM of (8E,12E,14E)-7-((4-Cycloheptylpiperazin-1-yl)carbonyl)oxy-3,6,16,21-tetrahydroxy-6,10,12,16,20-pentamethyl-18,19-epoxytricosa-8,12,14-trien-11-olide (hereinafter also referred to as “compound A”) for six hours.
WiDr cells were first suspended in RPMI1640 medium (containing 10% FBS, penicillin, and streptomycin) and seeded in a 10 cm dish (2×10^6 cells/dish). After an overnight culture in an incubator with 5% carbon dioxide gas at 37° C., the medium was changed with medium containing 2.8 nM and 14 nM of compound A or containing vehicle alone. After cultured additional six hours, TRI reagent (SIGMA) was added to cells, and the cells were harvested. RNA was purified in accordance with the protocol of TRI reagent, followed by further purification with RNeasy (QIAGEN). Absorbance at 260 nm was measured to quantify an amount of RNA.
Subsequently, single stranded cDNA synthesis, double stranded cDNA synthesis, biotin-labeled cRNA synthesis, and cRNA fragmentation in order were carried out from 5-10 μg (WiDr 10 μg, PBMC 5 μg) of total RNA from the control cells and the treated cells, by using One-Cycle Target Labeling and Control Reagents (Affymetrix). cRNA probe was used for hybridization with Human Genome U133 Plus 2.0 Array (Affymetrix). The array was then washed and stained, and luminescence intensity was measured by a scanner.
The RMA method was applied to 33 of .cel files obtained in the microarray experiment and log signal intensity at a gene level normalized with log signal intensity at a probe level was obtained. By subtracting the mean between control 1 and control 3 from the mean between log signal intensity 1 and log signal intensity 3 for each case, the log signal intensity was converted into a log signal ratio to the control. A t-test was conducted between each log signal intensity and control, and candidate genes were narrowed down in the basis of a p-value, a log signal ratio, and a signal value. Specifically, genes showing that the P value was 5% or less; the expression level in the untreated (control) is 100 or more by signal value; and the expression level when treated with both 2.8 nM and 14 nM of compound A is, compared to the control, 25% or less, were picked out. The software used is R2.2.1 (http://www.r-project.org/), affy package 1.8.1 (http://www.bioconductor.org).
Genes showing that, by the treatment with compound A, the P value was 5% or less; the expression level in the untreated (control) is 100 or more by signal value; and the expression level when treated with both 2.8 nM and 14 nM of compound A is, compared to the control, 25% or less, and results thereof were shown in Table 1. Probe ID used in Table 1 represents Human Genome U133 Plus 2.0 Array Probeset ID. In Table 1, for each gene evaluated, gene name (Gene Name), abbreviated name (Gene Symbol), accession number (Accession), alias name (Synonym), Probe set number in Human Genome U133 Plus 2.0 Array (Human Genome U133 Plus 2.0 Array Probeset ID), the expression level upon the six-hour treatment with 2.8 nM of E7107 (2.8 nM (6 h)), and the expression level upon the six-hour treatment with 14 nM of E7107 (14 nM (6 h)) were respectively shown.

CCC(O)C(C)C1OC1CC(C)(O)/C=C/C=C(\C)C1OC(=O)CC(O)CCC(C)(O)C(OC(=O)N2CCN(C3CCCCCC3)CC2)/C=C/C1C (stereo not drawn) [E7107, (8E,12E,14E)-7-((4-Cycloheptylpiperazin-1-yl)carbonyl)oxy-3,6,16,21-tetrahydroxy-6,10,12,16,20-pentamethyl-18,19-epoxytricosa-8,12,14-trien-11-olide]
0.15: C1orf63 mRNA expression level (209006_s_at) | FANCL mRNA expression level (218397_at) | JAGN1 mRNA expression level (223104_at) | LOC124512 mRNA expression level (225808_at) | NR2C1 mRNA expression level (204791_at)
0.11: FKSG44 mRNA expression level (227964_at) | LOC51315 mRNA expression level (218303_x_at) | MCM10 mRNA expression level (220651_s_at) | Transcribed locus, moderately similar to XP_518244.1 mRNA expression level (235046_at)
0.17: ATP6V0A2 mRNA expression level (205704_s_at) | C15orf40 mRNA expression level (1552310_at) | EVI1 mRNA expression level (226420_at) | KIAA0859 mRNA expression level (212405_s_at) | MND1 mRNA expression level (223700_at) | RBBP6 mRNA expression level (212783_at) | RBMS1 mRNA expression level (209868_s_at) | SFXN1 mRNA expression level (230069_at) | Transcribed locus mRNA expression level (230098_at) | WBP4 mRNA expression level (203598_s_at)
0.18: CDC7 mRNA expression level (204510_at) | KIAA0776 mRNA expression level (212633_at) | KIF21A mRNA expression level (226003_at) | POLR3E mRNA expression level (222490_at) | RAD54B mRNA expression level (219494_at) | SYTL2 mRNA expression level (232914_s_at) | Transcribed locus mRNA expression level (230177_at) | ZCCHC6 mRNA expression level (220933_s_at) | ZNF518 mRNA expression level (204291_at)
0.13: CDC6 mRNA expression level (203967_at) | RFC4 mRNA expression level (204023_at) | RIF1 mRNA expression level (226821_at) | TSEN2 mRNA expression level (219581_at)
0.16: C1orf79 mRNA expression level (223774_at) | C7orf36 mRNA expression level (223433_at) | CLDND1 mRNA expression level (208925_at) | EHBP1 mRNA expression level (212653_s_at) | FLJ20628 mRNA expression level (221229_s_at) | PLEKHA5 mRNA expression level (220952_s_at) | POLD3 mRNA expression level (212836_at) | TUBGCP3 mRNA expression level (203690_at) | Transcribed locus, strongly similar to NP_689873.1 mRNA expression level (228638_at) | ZMIZ1 mRNA expression level (212124_at)
0.23: ADPRHL2 mRNA expression level (223097_at) | C6orf136 mRNA expression level (227455_at) | CARD10 mRNA expression level (210026_s_at) | FRY mRNA expression level (204072_s_at) | KIAA0323 mRNA expression level (212355_at) | MASTL mRNA expression level (228468_at) | NOC3L mRNA expression level (218889_at) | ORC5L mRNA expression level (204957_at) | PAXIP1 mRNA expression level (212825_at) | PIK3C3 mRNA expression level (204297_at) | RPS6KC1 mRNA expression level (218909_at) | ZC3HAV1L mRNA expression level (228280_at)
0.10: FGF19 mRNA expression level (223761_at) | UNC50 mRNA expression level (203583_at)
0.20: ARMC8 mRNA expression level (203486_s_at) | ATP2B1 mRNA expression level (212930_at) | BPTF mRNA expression level (232909_s_at) | C1orf82 mRNA expression level (222893_s_at) | C5orf28 mRNA expression level (219029_at) | C7orf49 mRNA expression level (220949_s_at) | IXL mRNA expression level (225708_at) | KCNE3 mRNA expression level (227647_at) | KIF2C mRNA expression level (211519_s_at) | KLHL12 mRNA expression level (225068_at) | MKRN1 mRNA expression level (201285_at) | MYOHD1 mRNA expression level (225947_at) | NCOA5 mRNA expression level (225145_at) | TNS3 mRNA expression level (217853_at)
0.22: ANGEL2 mRNA expression level (221825_at) | C17orf80 mRNA expression level (223351_at) | CCNE2 mRNA expression level (205034_at) | E2F7 mRNA expression level (228033_at) | Full-length cDNA clone CS0DL007YI24 of B cells (Ramos cell line) mRNA expression level (226648_at) | KIN mRNA expression level (205664_at) | METTL4 mRNA expression level (219698_s_at) | NIN mRNA expression level (225921_at) | PMS1 mRNA expression level (213677_s_at) | REPS1 mRNA expression level (224366_s_at) | SLC37A1 mRNA expression level (218928_s_at) | TTC4 mRNA expression level (46167_at)
0.25: ERCC3 mRNA expression level (202176_at) | JUB mRNA expression level (225806_at) | PHACTR4 mRNA expression level (226823_at) | SLC25A19 mRNA expression level (223222_at) | TRIM31 mRNA expression level (210159_s_at)
0.12: C7orf23 mRNA expression level (204215_at) | IREB2 mRNA expression level (225892_at) | NUPL1 mRNA expression level (223984_s_at)
0.19: C12orf32 mRNA expression level (225837_at) | FAM86C mRNA expression level (65585_at) | FBXL5 mRNA expression level (209004_s_at) | SHPRH mRNA expression level (226366_at) | SMEK2 mRNA expression level (226230_at) | STAMBPL1 mRNA expression level (227606_s_at) | STXBP3 mRNA expression level (203310_at)
0.24: ATP2A2 mRNA expression level (212361_s_at) | C20orf112 mRNA expression level (225224_at) | CASC5 mRNA expression level (228323_at) | CDNA FLJ34214 fis, clone FCBBF3021807 mRNA expression level (227087_at) | CLIP1 mRNA expression level (201975_at) | DNAJC16 mRNA expression level (212908_at) | ELL3 mRNA expression level (219518_s_at) | FCHO2 mRNA expression level (228220_at) | GRHL1 mRNA expression level (222830_at) | INTS7 mRNA expression level (222250_s_at) | METTL3 mRNA expression level (209265_s_at) | NPC1 mRNA expression level (202679_at) | PHF20L1 mRNA expression level (226942_at) | PPM1B mRNA expression level (209296_at) | SLC17A5 mRNA expression level (223441_at) | SMUG1 mRNA expression level (218685_s_at) | TMEM177 mRNA expression level (218897_at) | Transcribed locus, strongly similar to NP_002194.1 integrin alpha 2 precursor mRNA expression level (227314_at) | WDR26 mRNA expression level (218107_at)
0.21: CCDC14 mRNA expression level (225017_at) | HDAC4 mRNA expression level (204225_at) | LIPG mRNA expression level (219181_at) | MLL2 mRNA expression level (227527_at) | NUPL2 mRNA expression level (204003_s_at) | PCGF1 mRNA expression level (210023_s_at) | PPWD1 mRNA expression level (213483_at) | RBM17 mRNA expression level (224780_at) | TAF4 mRNA expression level (213090_s_at) | TRIP4 mRNA expression level (203732_at) | Transcribed locus mRNA expression level (235609_at) | ZKSCAN1 mRNA expression level (214670_at) | mRNA expression level, probeset 228106_at (gene name not given) | mRNA expression level, probeset 235436_at (gene name not given)
0.09: DAPK1 mRNA expression level (203139_at) | WDR67 mRNA expression level (214061_at)

Reference: patent US20100086931A1, “METHOD FOR ASSAYING ACTION OF ANTITUMOR AGENT USING DECREASE IN GENE EXPRESSION LEVEL AS INDEX” (Eisai R&D Management Co., Ltd., priority 2007, published 2010)
